For one test, the system named is HEPG2. In words: MTT cell viability assay. The following applies: Homo sapiens, 24 h, compounds 0.01–40 μM, read-out: In Vitro Cytotoxicity, EC50 ± SD, HEPG2. In kind it is cell-based. An excerpt:
Initially, we phenotypically screened the synthesized compounds over a panel of tumor cell lines composed of HEPG2, A375, SHSY5Y, MCF7, and A549 derived from liver tumor, melanoma, neuroblastoma, breast cancer, and lung adenocarcinoma, respectively. We also considered the HaCaT cell line, coming from keratinocytes, as a healthy control line. As reference, cytotoxic chemotherapeutic agent 5-fluorouracil (5-FU) has been used. The results obtained performing the MTT (3-(4,5-dimethylthiazolyl-2)-2,5-diphenyltetrazolium bromide) assay are summarized in Table .
The human hepatoma HEPG2 cell line was obtained from American Type Culture Collection (ATCC, Rockville, MD, USA). Cells were grown in Eagle’s Minimum Essential Medium (EMEM) supplemented with 10% (v/v) fetal bovine serum (FBS), 2 mM L-glutamine, 1% (v/v) nonessential amino acids, 100 U/mL penicillin, and 0.1 mg/mL streptomycin.
Cell viability was established by measuring mitochondrial metabolic activity with MTT. In brief, HEPG2 (1 × 10^4 cells/well), A375 (2 × 10^3 cells/well), HaCaT (3 × 10^3 cells/well), A549 (3 × 10^3 cells/well), SHSY5Y (2 × 10^4 cells/well), and MCF 7 (5 × 10^3 cells/well) were plated into 96-well plates for 24 h, then the compounds (0.01–40 μM) were added. After 24h, cells were replaced with a fresh medium containing 0.5 mg/mL MTT. Cells were incubated 1–3 h at 37 °C, then the medium was discarded, and formazan blue crystals in the cells were dissolved in 100 μL per well of a solution containing isopropanol/HCl 0.1 M. The absorbance was measured at 570 nm using a microplate reader (Multiskan Go, Thermo Scientific, Waltham, MA, USA). Cell viability was expressed as a percentage relative to the untreated cells cultured in medium with 0.1% DMSO and set to 100%, whereas 10% DMSO was used as positive control and set to 0% of viability. The EC50 values were calculated using GraphPad Prism 8.0 software by nonlinear regression of dose–response inhibition.
(In general: Tetrazolium assays rely on reduction of a dye to a coloured formazan, in cell work by metabolically active cells.)

Another test has as its target human recombinant CB1R (Homo sapiens, UniProt P21554). In words: Competition binding assay, displacement of [3H]-CP-55,940. Particulars: displacement of [3H]-CP-55,940, HEK-293 membranes; read-out: EC50 or IC50, cannabinoid receptor 1. The procedure: Binding assays at equilibrium were conducted as described in Di Micco et al., 2024. […]. All compounds were evaluated following the manufacturer’s protocol (PerkinElmer distributed by Revvity, Italy). […] The K i values were calculated using the Cheng-Prusoff equation, based on the IC50 values obtained through GraphPad PRISM software (version 10.2.2). The results are expressed as K i (μM), represented as mean ± SEM, and reflect the average of three independent experiments performed in duplicate.
On the technique in general: In a radioligand displacement assay an active substance lowers the binding of a labelled ligand.

For a further test, the target named is T1, Cathepsin K (Homo sapiens, UniProt P43235).
T1 construct: purchased BPS Bioscience
The test is described as follows: Cathepsin K Inhibitor Screening Assay Kit (BPS Bioscience). In kind it is biochemical. The following applies: top concentration 30 μM; read-out: EC50 or IC50, Cathepsin K. Here is the method: The assay was performed in a volume of 50 μL in a 96-well black plate. The Cathepsin K inhibitor assay (BPS Bioscience, USA) was designed to measure protease activity by the presence of an internally quenched fluorogenic substrate. Upon cleavage by Cathepsin K (CTSK), the fluorescence of the substrate increases dramatically. For the activity measurement, protease (final concentration, 0.5 ng per reaction), the Fluorogenic Cathepsin K Substrate (final concentration, 70 μM), E-64 (known inhibitor, as positive control) or compounds were incubated for 1 h at room temperature. The compounds were added at different concentrations in the reaction buffer, starting with a final concentration of 30 μM. Buffer with the same amount of DMSO (1%) was used as a negative control. After the incubation time, the fluorescence signals (excitation/emission, 360 nm/460 nm) were read with a PerkinElmer EnSpire multimode plate reader (PerkinElmer, Waltham, MA, USA). Experiments were performed in triplicate. IC50 values were calculated with GraphPad Prism 8.0 software by nonlinear dose–response inhibition regression.

The next test has as its target T2, Phosphodiesterase 10A2 (Homo sapiens, UniProt Q9Y233).
T2 construct: Eurofins (contract assay)
In words: Enzymatic LeadHunter Assay. In kind it is biochemical. Particulars: Eurofins enzymatic; read-out: EC50 or IC50, Phosphodiesterase 10A2. An excerpt: (§1) For displacement assays on G-protein coupled receptor 55 (GPR55), Vasopressin V2 receptor (V2R), Adenosine A1 receptor (A1AR), Fibroblast growth factor receptor 1 (FGFR1), Vascular endothelial growth factor receptor 2 (VEGFR2), Platelet-derived growth factor receptor beta (PDGFRB), Vascular endothelial growth factor receptor 1 (VEGFR1), Thromboxane Synthase (TXS) and Phosphodiesterase 10A (PDE10A), we commissioned the Eurofins company which employed its specific experimental methods, accessible at the link: https://www.eurofins.com/.

For another test, the target named is T3, Thromboxane Synthase (Homo sapiens, UniProt P24557).
T3 construct: Eurofins (contract assay)
In words: Enzymatic LeadHunter Assay. In kind it is biochemical. Particulars: Eurofins enzymatic; read-out: EC50 or IC50, Thromboxane Synthase.
Text: as §1

Test [1] has as its system A375 cells. The test is described as follows: Annexin V-FITC staining (apoptosis, flow cytometry). In kind it is cell-based, human. The following applies: 72 h. Here is the method:
Given the cytotoxic role of the compounds, an annexin V-FITC staining was performed to evaluate their effects on cell apoptosis.
Apoptosis of the cells was assessed using the Annexin V-FITC/PI reagents. A375 cells (3 × 10^4 cells/well) were seeded into 24-well plates and incubated for 72 h with compounds (5, 2.5, and 1.25 μM). After treatment, the collected cells were resuspended in a 100 μL assay buffer, then 5 μL Annexin V-FITC and 1 μL PI reagents were added following an incubation for 20 min at room temperature according to the manufacturer’s protocol (Dead Cell Apoptosis Kits with Annexin V for Flow Cytometry, Thermo Fisher Scientific). Cells were analyzed with a Becton Dickinson FACScan flow cytometer using the Cell Quest software, version 4 (Franklin Lakes, NJ, USA).
In general terms: In flow cytometry, cells or beads pass a laser one at a time.

Test [2] deals with A375 cells. The test is described as follows: Thioflavin T (ThT) protein misfolding assay. Particulars: 24 h, 31: 10, 5, 2.5 μM, 63: 20, 10, 5 μM. In kind it is cell-based, human. The procedure: Protein misfolding was analyzed using ThT, (Sigma-Aldrich, St. Louis, MO, USA) staining. A375 cells (5 × 10^3 cells/well) were grown in 96-well plates and allowed to adhere for 24 h. Later the medium was replaced, and cells were treated with compounds (31: 10, 5, and 2.5 μM; 63: 20, 10, and 5 μM), for 24 h. After treatments, the culture medium was replaced, cells washed twice with PBS and then suspended in 100 μL ThT (20 μM). After washing, a staining solution containing 20 μM ThT in PBS was added for 30 min at 37 °C in the dark. The stained cells were washed, and representative images were acquired using ZOE Fluorescent Cell Imaging System (Magnification, 20×). Quantitative analyses were performed reading the fluorescence signals (excitation/emission 450 nm/482 nm) using a PerkinElmer EnSpire multimode plate reader (PerkinElmer, Waltham, MA, USA).

T3 sequence (P24557 whole entry): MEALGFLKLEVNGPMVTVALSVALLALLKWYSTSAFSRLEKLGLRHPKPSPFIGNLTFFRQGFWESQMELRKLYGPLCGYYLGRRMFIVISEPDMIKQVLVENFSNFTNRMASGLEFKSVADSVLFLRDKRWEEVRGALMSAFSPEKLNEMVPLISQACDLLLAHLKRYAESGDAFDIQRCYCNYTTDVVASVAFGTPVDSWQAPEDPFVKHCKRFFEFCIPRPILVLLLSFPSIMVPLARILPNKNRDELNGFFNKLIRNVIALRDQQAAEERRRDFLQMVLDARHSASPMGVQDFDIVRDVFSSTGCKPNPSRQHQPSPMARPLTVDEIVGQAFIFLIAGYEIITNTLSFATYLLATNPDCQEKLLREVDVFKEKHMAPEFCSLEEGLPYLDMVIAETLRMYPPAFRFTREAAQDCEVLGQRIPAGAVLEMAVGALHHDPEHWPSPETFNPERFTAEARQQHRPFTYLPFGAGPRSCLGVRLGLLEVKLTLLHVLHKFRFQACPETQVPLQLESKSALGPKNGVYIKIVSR
Sequence of human recombinant CB1R (P21554 whole entry): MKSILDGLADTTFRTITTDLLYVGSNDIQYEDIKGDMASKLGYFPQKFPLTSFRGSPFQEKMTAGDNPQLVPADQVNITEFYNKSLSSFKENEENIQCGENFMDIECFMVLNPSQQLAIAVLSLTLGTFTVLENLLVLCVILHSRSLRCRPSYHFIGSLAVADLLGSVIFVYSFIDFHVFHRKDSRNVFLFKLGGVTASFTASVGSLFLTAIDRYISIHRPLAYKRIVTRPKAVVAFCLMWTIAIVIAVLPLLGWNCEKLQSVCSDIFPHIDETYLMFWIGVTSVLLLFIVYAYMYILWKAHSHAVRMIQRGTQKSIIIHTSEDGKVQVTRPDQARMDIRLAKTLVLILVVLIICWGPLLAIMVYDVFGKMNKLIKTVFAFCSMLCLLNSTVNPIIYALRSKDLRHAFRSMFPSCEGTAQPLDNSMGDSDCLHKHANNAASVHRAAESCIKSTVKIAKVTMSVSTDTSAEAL
T2 sequence (Q9Y233 267-1055): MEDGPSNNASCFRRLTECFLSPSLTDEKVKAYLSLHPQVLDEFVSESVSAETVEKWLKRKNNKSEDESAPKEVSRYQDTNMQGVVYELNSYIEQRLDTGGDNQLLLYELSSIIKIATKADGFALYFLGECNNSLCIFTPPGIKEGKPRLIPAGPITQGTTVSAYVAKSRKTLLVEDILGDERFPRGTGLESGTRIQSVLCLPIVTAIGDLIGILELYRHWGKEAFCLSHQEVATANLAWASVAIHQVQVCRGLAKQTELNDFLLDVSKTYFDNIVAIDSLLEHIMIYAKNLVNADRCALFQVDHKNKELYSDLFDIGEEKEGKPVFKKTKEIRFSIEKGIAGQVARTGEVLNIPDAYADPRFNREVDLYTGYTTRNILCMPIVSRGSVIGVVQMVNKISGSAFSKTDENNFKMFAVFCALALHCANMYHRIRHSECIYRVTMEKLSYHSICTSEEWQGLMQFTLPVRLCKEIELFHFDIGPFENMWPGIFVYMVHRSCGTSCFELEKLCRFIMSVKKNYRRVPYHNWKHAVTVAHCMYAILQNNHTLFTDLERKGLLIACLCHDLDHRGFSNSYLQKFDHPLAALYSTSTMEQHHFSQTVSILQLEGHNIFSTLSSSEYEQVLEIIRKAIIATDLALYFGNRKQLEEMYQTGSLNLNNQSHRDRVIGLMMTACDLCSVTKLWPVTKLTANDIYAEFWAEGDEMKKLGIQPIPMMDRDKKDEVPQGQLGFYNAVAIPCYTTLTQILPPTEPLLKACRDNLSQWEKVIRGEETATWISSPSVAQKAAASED
T1 sequence (P43235 115-329): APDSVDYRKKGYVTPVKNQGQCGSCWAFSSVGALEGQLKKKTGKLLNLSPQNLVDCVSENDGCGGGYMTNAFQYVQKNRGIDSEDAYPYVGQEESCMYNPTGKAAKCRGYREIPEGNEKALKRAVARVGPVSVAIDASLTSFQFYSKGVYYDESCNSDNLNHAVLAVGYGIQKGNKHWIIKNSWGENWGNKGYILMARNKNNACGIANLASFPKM

Turning to `CC(C)C[C@H]1C(=O)N(Cc2ccc(C(F)(F)F)cc2)c2ccccc2C(=O)N1Cc1ccc(C(F)(F)F)cc1` [Compound 31, (S)-3-Isobutyl-1,4-bis(4-(trifluoromethyl)benzyl)-3,4-dihydro-1H-benzo[e][1,4]diazepine-2,5-dione], in the test on HEPG2, the EC50 (usually the concentration needed to bring the measured effect to its halfway point) came to 12 ± 3.51 µM. The IC50 (in general, the point on the concentration scale where inhibition reaches its midpoint) on human recombinant CB1R was above 30 µM; at Cathepsin K, above 30 µM; at Phosphodiesterase 10A2 it was at least 30 µM; at Thromboxane Synthase it was at least 30 µM. The “percentage of apoptotic cells” value in the test on A375 cells [1] (1.25 μM) came to 20.40 ± 4.56%; in the test on A375 cells [1] (2.5 μM), 81.10 ± 3.89%; in the test with A375 cells [1] (5 μM) it was 88.68 ± 2.10%. Moreover, in the test with A375 cells [2], the “misfolded protein levels (ThT fluorescence)” value is “maximum accumulation of misfolded proteins even at 10 μM”.
For `CC(C)C[C@@H](C(=O)OCc1ccccc1)N1Cc2ccccc2NC1=O` [Compound 63, Benzyl (S)-4-Methyl-2-(2-oxo-1,4-dihydroquinazolin-3(2H)-yl)pentanoate], the EC50 in the test with HEPG2 was determined as 2.17 ± 0.96 µM. Besides, the 50% inhibitory concentration (IC50) on human recombinant CB1R was above 30 µM; at Cathepsin K, above 30 µM; at Phosphodiesterase 10A2, at least 30 µM; on Thromboxane Synthase, at least 30 µM. The “percentage of apoptotic cells” value was 16.52 ± 3.24% with A375 cells [1] (1.25 μM), 58.90 ± 1.89% with A375 cells [1] (2.5 μM) and 71.25 ± 0.11% with A375 cells [1] (5 μM). The “misfolded protein levels (ThT fluorescence)” value in the test with A375 cells [2] is given as “greatest increase in fluorescence at 20 μM”.

(Values after PMC12362587, “Untargeted Diversity-Oriented Synthesis for the Discovery of New Antitumor Agents: An Integrated Approach of Inverse Virtual Screening, Bioinformatics, and Omics for Target Deconvolution” (Journal of Medicinal Chemistry, 2025).)
